PMC9958137, “The cofactor-dependent folding mechanism of Drosophila cryptochrome revealed by single-molecule pulling experiments” (Nature Communications, 2023)

What was measured:
[1] = target: T1, dCRY (Drosophila cryptochrome) (Drosophila melanogaster, UniProt O77059); experiment: single-molecule optical tweezers, ligand-promoted refolding; assay type: binding; settings: 0.1 mM ligand, FAD dialysed out; refolding 20 s at 1 pN; pH 8.0; no Mg2+
T1 construct: gene cry; full length, 542 residues; His6, N-terminal Avi tag (biotinylated) and C-terminal ybbR tag (DNA handle) kept; 558 residues with engineered linkers; FAD dialysed out for apo; only genus Drosophila given
T1 sequence (O77059 whole entry): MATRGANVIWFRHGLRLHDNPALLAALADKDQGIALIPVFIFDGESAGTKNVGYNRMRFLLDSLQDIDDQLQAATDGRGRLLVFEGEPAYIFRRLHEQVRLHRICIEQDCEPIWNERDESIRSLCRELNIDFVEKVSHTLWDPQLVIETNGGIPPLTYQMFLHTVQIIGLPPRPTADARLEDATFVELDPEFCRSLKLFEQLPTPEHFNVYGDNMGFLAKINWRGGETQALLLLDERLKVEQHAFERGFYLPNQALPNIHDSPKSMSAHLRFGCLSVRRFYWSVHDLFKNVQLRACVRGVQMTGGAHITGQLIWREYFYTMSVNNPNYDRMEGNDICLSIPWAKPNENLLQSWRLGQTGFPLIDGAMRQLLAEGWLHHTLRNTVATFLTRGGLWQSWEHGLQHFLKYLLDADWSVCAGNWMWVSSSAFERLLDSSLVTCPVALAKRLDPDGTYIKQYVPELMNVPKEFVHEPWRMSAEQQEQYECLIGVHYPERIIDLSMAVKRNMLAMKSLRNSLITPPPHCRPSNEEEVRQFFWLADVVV

[2] = target: T1, dCRY (Drosophila cryptochrome); experiment: single-molecule optical tweezers, FAD titration of fully folded fraction; assay type: binding; settings: read-out: Kd,app

Row | Structure (SMILES) | % fully folded events at 0.1 mM [1] | Kd [2]
1 | Nc1ncnc2c1ncn2[C@@H]1O[C@H](COP(=O)(O)OP(=O)(O)O)[C@@H](O)[C@H]1O [ADP] | 9% | –
2 | Nc1ncnc2c1ncn2[C@@H]1O[C@H](COP(=O)(O)O)[C@@H](O)[C@H]1O [AMP] | 24% | –
3 | Cc1cc2nc3c(=O)[nH]c(=O)nc-3n(C[C@H](O)[C@H](O)[C@H](O)COP(=O)(O)OP(=O)(O)OC[C@H]3O[C@@H](n4cnc5c(N)ncnc54)[C@H](O)[C@@H]3O)c2cc1C [FAD] | – | 0.11 ± 0.01 nM
4 | Cc1cc2nc3c(=O)[nH]c(=O)nc-3n(C[C@H](O)[C@H](O)[C@H](O)COP(=O)(O)O)c2cc1C [FMN] | 84% | –
5 | Nc1ncnc2c1ncn2[C@@H]1O[C@H](CO)[C@@H](O)[C@H]1O [adenosine] | 20% | –
6 | Cc1cc2nc3c(=O)[nH]c(=O)nc-3n(C[C@H](O)[C@H](O)[C@H](O)CO)c2cc1C [riboflavin] | 39% | –
